For 23 compounds, IC50, inhibition and Ki results are on record in ChEMBL document CHEMBL4706551, “Rational design of new multitarget histamine H receptor ligands as potential candidates for treatment of Alzheimer's disease” (Eur J Med Chem, 2020).

Bounds are passed on as bounds.

Data set [1] deals with T1, Amine oxidase [flavin-containing] B (Homo sapiens, UniProt P27338).
T1 sequence (P27338 whole entry): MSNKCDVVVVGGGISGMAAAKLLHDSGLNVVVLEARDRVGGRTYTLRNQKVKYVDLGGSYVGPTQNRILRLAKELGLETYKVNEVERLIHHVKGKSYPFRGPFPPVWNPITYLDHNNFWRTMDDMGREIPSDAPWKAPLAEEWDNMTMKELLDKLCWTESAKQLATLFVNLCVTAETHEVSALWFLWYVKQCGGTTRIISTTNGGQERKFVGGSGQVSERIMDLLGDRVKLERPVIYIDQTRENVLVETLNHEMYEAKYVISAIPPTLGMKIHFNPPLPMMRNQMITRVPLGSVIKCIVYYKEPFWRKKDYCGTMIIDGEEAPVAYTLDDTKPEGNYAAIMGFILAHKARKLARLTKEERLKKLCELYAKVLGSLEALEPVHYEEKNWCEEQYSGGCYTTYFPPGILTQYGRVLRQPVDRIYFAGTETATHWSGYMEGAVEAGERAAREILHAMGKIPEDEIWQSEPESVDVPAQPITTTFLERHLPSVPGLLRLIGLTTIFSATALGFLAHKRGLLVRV
The experiment in a line: biochemical. Type of data set: cell-based, BTI.
Description: Inhibition of recombinant human MAO-B expressed in baculovirus infected BTI cells using p-tyramine as substrate by fluorometric assay

In data set [2] the target is T2, MAO-A (Homo sapiens, UniProt P21397).
T2 sequence (P21397 whole entry): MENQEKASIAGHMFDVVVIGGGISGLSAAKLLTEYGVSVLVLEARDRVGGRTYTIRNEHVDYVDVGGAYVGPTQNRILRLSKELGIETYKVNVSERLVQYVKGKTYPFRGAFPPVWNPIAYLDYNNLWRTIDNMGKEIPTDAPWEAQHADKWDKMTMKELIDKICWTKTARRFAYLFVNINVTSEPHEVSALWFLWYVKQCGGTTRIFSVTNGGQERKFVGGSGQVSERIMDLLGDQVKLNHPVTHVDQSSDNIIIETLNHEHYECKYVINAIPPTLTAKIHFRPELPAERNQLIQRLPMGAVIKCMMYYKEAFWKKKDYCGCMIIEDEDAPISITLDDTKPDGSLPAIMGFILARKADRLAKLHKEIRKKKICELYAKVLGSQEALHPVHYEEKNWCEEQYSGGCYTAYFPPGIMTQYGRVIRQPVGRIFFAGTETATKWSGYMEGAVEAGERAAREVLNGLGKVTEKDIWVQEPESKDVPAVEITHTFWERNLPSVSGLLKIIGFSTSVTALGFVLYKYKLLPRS
The experiment in a line: Inhibition of recombinant human MAO-A expressed in baculovirus infected BTI cells at 10 uM using p-tyramine as substrate by fluorometric assay relative to control. The note with it: probe p-tyramine.

The target in another data set is Histamine H3 receptor (Homo sapiens, UniProt Q9Y5N1). Put plainly: biochemical.
Sequence of Histamine H3 receptor (Q9Y5N1 whole entry): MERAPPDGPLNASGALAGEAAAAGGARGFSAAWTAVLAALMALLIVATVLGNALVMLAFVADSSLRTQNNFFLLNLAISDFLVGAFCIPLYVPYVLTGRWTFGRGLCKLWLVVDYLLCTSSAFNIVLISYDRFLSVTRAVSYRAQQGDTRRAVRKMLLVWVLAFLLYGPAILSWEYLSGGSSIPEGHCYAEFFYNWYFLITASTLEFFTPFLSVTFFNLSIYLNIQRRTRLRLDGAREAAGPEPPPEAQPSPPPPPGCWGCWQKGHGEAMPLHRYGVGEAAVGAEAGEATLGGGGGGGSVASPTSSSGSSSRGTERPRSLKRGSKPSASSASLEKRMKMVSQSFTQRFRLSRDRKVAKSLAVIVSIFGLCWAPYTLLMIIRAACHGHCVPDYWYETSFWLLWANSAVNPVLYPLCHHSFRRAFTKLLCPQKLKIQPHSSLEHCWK
In another data set the target is Cholinesterase (Equus caballus, UniProt P81908).
Sequence of Cholinesterase (P81908 whole entry): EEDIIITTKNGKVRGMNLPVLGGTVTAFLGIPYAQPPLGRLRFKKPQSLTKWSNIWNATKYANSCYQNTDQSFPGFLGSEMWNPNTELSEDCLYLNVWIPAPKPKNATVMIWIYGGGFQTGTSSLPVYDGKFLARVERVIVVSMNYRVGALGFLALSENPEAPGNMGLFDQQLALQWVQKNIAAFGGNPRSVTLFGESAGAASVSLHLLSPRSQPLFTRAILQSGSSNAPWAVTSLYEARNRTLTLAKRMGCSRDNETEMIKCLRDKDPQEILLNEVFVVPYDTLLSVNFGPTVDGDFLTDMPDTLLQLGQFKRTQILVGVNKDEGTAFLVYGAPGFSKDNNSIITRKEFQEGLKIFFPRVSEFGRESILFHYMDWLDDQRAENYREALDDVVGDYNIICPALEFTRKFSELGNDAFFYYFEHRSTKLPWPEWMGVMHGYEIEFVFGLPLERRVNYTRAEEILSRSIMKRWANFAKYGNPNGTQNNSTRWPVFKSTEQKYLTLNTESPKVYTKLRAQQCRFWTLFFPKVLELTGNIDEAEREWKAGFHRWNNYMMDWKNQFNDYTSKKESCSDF
In data set [3] the target is T2, MAO-A. The experiment in a line: in vitro. The note with it: probe p-tyramine.
Description: Inhibition of recombinant human MAO-A expressed in baculovirus infected BTI cells at 1 uM using p-tyramine as substrate by fluorometric assay relative to control
A further data set has as its target Acetylcholinesterase (Electrophorus electricus, UniProt O42275).

Sequence of Acetylcholinesterase (O42275 whole entry): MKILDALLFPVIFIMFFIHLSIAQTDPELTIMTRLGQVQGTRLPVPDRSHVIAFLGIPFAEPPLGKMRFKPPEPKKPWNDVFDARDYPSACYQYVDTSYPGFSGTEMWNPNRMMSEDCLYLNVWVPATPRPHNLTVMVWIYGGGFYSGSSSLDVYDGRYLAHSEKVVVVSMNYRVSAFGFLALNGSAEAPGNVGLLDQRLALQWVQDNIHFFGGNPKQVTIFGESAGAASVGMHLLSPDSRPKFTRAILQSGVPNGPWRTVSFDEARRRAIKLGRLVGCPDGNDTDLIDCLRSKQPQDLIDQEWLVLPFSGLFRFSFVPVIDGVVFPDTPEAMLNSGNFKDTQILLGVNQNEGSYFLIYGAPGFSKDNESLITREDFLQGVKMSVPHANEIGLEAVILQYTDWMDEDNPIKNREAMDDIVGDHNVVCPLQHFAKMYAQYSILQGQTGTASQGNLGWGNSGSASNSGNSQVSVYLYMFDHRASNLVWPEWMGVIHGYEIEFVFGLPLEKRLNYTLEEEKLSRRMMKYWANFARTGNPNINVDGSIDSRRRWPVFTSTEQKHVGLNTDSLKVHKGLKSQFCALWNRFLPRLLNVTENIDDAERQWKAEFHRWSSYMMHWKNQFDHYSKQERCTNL
Description for Acetylcholinesterase: Inhibition of Electric eel AChE using ATCI as substrate incubated for 5 mins followed by substrate addition and measured after 5 mins by spectrophotometric based Ellman's method
Description for Histamine H3 receptor: Displacement of [3H]N-alpha-methylhistamine from recombinant human histamine H3 receptor expressed in CHO-K1 cells by microbeta scintillation analysis

A word on the IC50: it is the concentration at which inhibition is half-maximal. A higher IC50 goes with weaker potency. In general, inhibition refers to the drop in the measured response relative to a control, in per cent. As a reminder, the Ki is a measure of affinity in units of concentration, obtained from inhibition or displacement. Higher therefore signals a looser hold on the target. For the compound `CC1CCCN(CCCCCOc2ccc3oc4cc(Cl)ccc4c(=O)c3c2)C1` (stereo not drawn), the 50% inhibitory concentration (IC50) came to 1980 nM in data set [1], 2830 nM at Cholinesterase and 353 nM against Acetylcholinesterase. In addition, at MAO-A [2], the inhibition at 10 µM is below 50%. On Histamine H3 receptor, this compound had a Ki of 56 nM. Testing at 1 µM on MAO-A [3] gave an inhibition of 11%.

As for `CC1CCN(CCCCCCOc2ccc3oc4ccccc4c(=O)c3c2)CC1`, the IC50 amounted to 856 nM in data set [1], 965 nM against Cholinesterase and 406 nM at Acetylcholinesterase. Besides, the inhibition at 10 µM on MAO-A [2] was below 50%. Besides, the inhibitory constant (Ki) at Histamine H3 receptor was determined as 97 nM. Also, testing at 1 µM against MAO-A [3] gave an inhibition of 6%.

In the case of `CC1CCN(CCCCCCOc2ccc3oc4cc(Cl)ccc4c(=O)c3c2)CC1`, the values for the half-inhibitory concentration (IC50) (in data set [1]; on Cholinesterase; against Acetylcholinesterase) were 1640 nM, 1510 nM and 561 nM, respectively. The inhibition at 10 µM at MAO-A [2] was below 50%. The Ki at Histamine H3 receptor turned out to be 520 nM. At MAO-A [3], the inhibition at 1 µM stood at 37%.

In the case of `CC1CCN(CCCCCOc2ccc3oc4ccccc4c(=O)c3c2)CC1`, the IC50 in data set [1] was 1860 nM; on Cholinesterase, 1090 nM; against Acetylcholinesterase it was 697 nM. Also, the inhibition at 10 µM at MAO-A [2] was below 50%. The compound further gave a Ki on Histamine H3 receptor of 110 nM. The compound further had an inhibition at 1 µM against MAO-A [3] of 1%.

`O=c1c2ccccc2oc2ccc(OCCCCCCN3CCCCC3)cc12`: the values for the IC50 (in data set [1]; against Cholinesterase; on Acetylcholinesterase) were 939 nM, 2000 nM and 358 nM, respectively. Moreover, the inhibition at 10 µM on MAO-A [2] was below 50%. The compound also came in with an inhibition constant Ki on Histamine H3 receptor of 1060 nM. The compound also registered an inhibition at 1 µM at MAO-A [3] of 4%.

For `O=c1c2cc(Cl)ccc2oc2ccc(OCCCCCCN3CCCCC3)cc12`, the IC50 in data set [1] is 1820 nM; on Cholinesterase, 954 nM; on Acetylcholinesterase, 620 nM. The inhibition at 10 µM at MAO-A [2] was below 50%. At Histamine H3 receptor, this compound gave a Ki of 282 nM. The compound further displayed an inhibition at 1 µM against MAO-A [3] of 8%.

`CC1CCCN(CCCCCCOc2ccc3oc4cc(Cl)ccc4c(=O)c3c2)C1` (stereo not drawn): the IC50 in data set [1] was found to be 1830 nM; at Cholinesterase, 2040 nM; at Acetylcholinesterase it was 384 nM. Moreover, on MAO-A [2], the inhibition at 10 µM was below 50%. Also, the affinity at Histamine H3 receptor corresponds to a Ki of 1100 nM. This compound also gave an inhibition at 1 µM against MAO-A [3] of 42%.

For `O=c1c2ccc(Cl)cc2oc2ccc(OCCCCCCN3CCCCC3)cc12`, the IC50 amounted to 946 nM in data set [1], 1980 nM against Cholinesterase and 378 nM at Acetylcholinesterase. At MAO-A [2], the inhibition at 10 µM is below 50%. This compound also had a Ki on Histamine H3 receptor of 203 nM. Also, at MAO-A [3], the inhibition at 1 µM came to 8%.

In the case of `CC1CCCN(CCCCCOc2ccc3oc4ccccc4c(=O)c3c2)C1` (stereo not drawn), the IC50 in data set [1] stood at 4200 nM; against Cholinesterase, 978 nM; against Acetylcholinesterase, 342 nM. Moreover, the inhibition at 10 µM on MAO-A [2] is below 50%. In addition, the affinity on Histamine H3 receptor corresponds to a Ki of 156 nM. Moreover, on MAO-A [3], the inhibition at 1 µM is 1%.

As for `CC1CCN(CCCCCCOc2ccc3oc4ccc(Cl)cc4c(=O)c3c2)CC1`, the concentration for half-maximal inhibition (IC50) in data set [1] is 720 nM; against Cholinesterase, 899 nM; against Acetylcholinesterase, 525 nM. For the same compound, the inhibition at 10 µM on MAO-A [2] was below 50%. The compound also showed a Ki on Histamine H3 receptor of 465 nM. At MAO-A [3], this compound gave an inhibition at 1 µM of 28%.

`CC1CCCN(CCCCCCOc2ccc3oc4ccccc4c(=O)c3c2)C1` (stereo not drawn): the concentration for half-maximal inhibition (IC50) in data set [1] worked out at 1550 nM; against Cholinesterase, 1150 nM; against Acetylcholinesterase, 387 nM. The inhibition at 10 µM on MAO-A [2] was below 50%. Further, the Ki at Histamine H3 receptor is 100 nM. Also, the inhibition at 1 µM at MAO-A [3] is 4%.

For `CC1CCCN(CCCCCOc2ccc3oc4ccc(Cl)cc4c(=O)c3c2)C1` (stereo not drawn), the IC50 in data set [1] came to 665 nM; on Cholinesterase, 685 nM; against Acetylcholinesterase, 691 nM. Besides, on MAO-A [2], the inhibition at 10 µM was below 50%. For the same compound, the Ki on Histamine H3 receptor is 148 nM. Further, at 1 µM the inhibition at MAO-A [3] was 2%.

With `O=c1c2ccc(Cl)cc2oc2ccc(OCCCCCN3CCCCCC3)cc12`, the figures for the 50% inhibitory concentration (IC50) (in data set [1]; on Cholinesterase; at Acetylcholinesterase) were 2110 nM, 1280 nM and 314 nM, respectively. Besides, at MAO-A [2], the inhibition at 10 µM was below 50%. Further, affinity at Histamine H3 receptor was put at a Ki of 86 nM. At 1 µM the inhibition against MAO-A [3] was 2%.

For `O=c1c2ccccc2oc2ccc(OCCCCCCN3CCCCCC3)cc12`, the half-inhibitory concentration (IC50) in data set [1] came to 385 nM; on Cholinesterase, 605 nM; against Acetylcholinesterase, 308 nM. In addition, the inhibition at 10 µM on MAO-A [2] was below 50%. Besides, at Histamine H3 receptor, the Ki came to 496 nM. This compound also yielded an inhibition at 1 µM at MAO-A [3] of 3%.

In the case of `CC1CCCN(CCCCCCOc2ccc3oc4ccc(Cl)cc4c(=O)c3c2)C1` (stereo not drawn), the half-inhibitory concentration (IC50) in data set [1] was 717 nM; on Cholinesterase, 1470 nM; against Acetylcholinesterase, 307 nM. At MAO-A [2], the inhibition at 10 µM is below 50%. This compound came in with a Ki on Histamine H3 receptor of 436 nM. The compound further had an inhibition at 1 µM against MAO-A [3] of 28%.

In the case of `CC1CCN(CCCCCOc2ccc3oc4ccc(Cl)cc4c(=O)c3c2)CC1`, the figures for the IC50 (in data set [1]; at Cholinesterase; on Acetylcholinesterase) were 673 nM, 1100 nM and 386 nM, respectively. Further, on MAO-A [2], the inhibition at 10 µM is below 50%. Moreover, the Ki at Histamine H3 receptor was 140 nM. Besides, at MAO-A [3], testing at 1 µM gave an inhibition of 5%.

With `O=c1c2ccc(Cl)cc2oc2ccc(OCCCCCCN3CCCCCC3)cc12`, the figures for the concentration for half-maximal inhibition (IC50) (in data set [1]; against Cholinesterase; on Acetylcholinesterase) were 975 nM, 1240 nM and 235 nM, respectively. In addition, at MAO-A [2], the inhibition at 10 µM was below 50%. The Ki at Histamine H3 receptor came out at 602 nM. Further, the inhibition at 1 µM against MAO-A [3] is 5%.

`C#CCN(C)CCCOc1ccc(Cl)cc1Cl` [CLORGILINE] registered an inhibition at 1 µM at MAO-A [3] of 1.8%.

As for `O=c1c2cc(Cl)ccc2oc2ccc(OCCCCCCN3CCCCCC3)cc12`, the values for the IC50 (in data set [1]; against Cholinesterase; against Acetylcholinesterase) were 1390 nM, 545 nM and 270 nM, respectively. The inhibition at 10 µM at MAO-A [2] was below 50%. Moreover, the inhibitory constant (Ki) on Histamine H3 receptor was 238 nM. On MAO-A [3], this compound registered an inhibition at 1 µM of 23%.

Turning to `CC1CCN(CCCCCOc2ccc3oc4cc(Cl)ccc4c(=O)c3c2)CC1`, the IC50 in data set [1] is 1540 nM; at Cholinesterase, 1610 nM; at Acetylcholinesterase, 421 nM. Further, the inhibition at 10 µM at MAO-A [2] was below 50%. The same compound displayed a Ki at Histamine H3 receptor of 448 nM. Besides, the inhibition at 1 µM on MAO-A [3] was 22%.

Consider `O=c1c2cc(Cl)ccc2oc2ccc(OCCCCCN3CCCCC3)cc12`, for which the 50% inhibitory concentration (IC50) stood at 756 nM in data set [1], 983 nM at Cholinesterase and 238 nM against Acetylcholinesterase. Further, the inhibition at 10 µM at MAO-A [2] is below 50%. In addition, the Ki on Histamine H3 receptor came out at 150 nM. Moreover, testing at 1 µM against MAO-A [3] gave an inhibition of 5%.

On to `O=c1c2ccccc2oc2ccc(OCCCCCN3CCCCC3)cc12`, for which the values for the half-inhibitory concentration (IC50) (in data set [1]; against Cholinesterase; against Acetylcholinesterase) were 1500 nM, 2540 nM and 622 nM, respectively. Besides, the inhibition at 10 µM at MAO-A [2] was below 50%. Further, the Ki on Histamine H3 receptor stood at 172 nM. This compound also yielded an inhibition at 1 µM on MAO-A [3] of 6%.

The compound `Clc1ccc(CCCOCCCN2CCCCC2)cc1` [PITOLISANT] gave an inhibition at 1 µM at MAO-A [3] of 9%.
